Legend:
[1] = tested on: Penicillium avellaneum; experiment: agar plate paper-disc inhibition zone screening; type: cell-based; details: Hamigera avellanea, read-out: Inhibition Zone Diameter mm (Dose mg/ml) P. Avellaneum; for zone of inhibition at 3000 µg/mL: Dose 3.0 mg/ml
Method in brief: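 Mycelia and spores from a six-day 28°C agar culture, suspended in saline with 0.05% Tween 80 at 20% transmittancy, were seeded into molten agar trays. Compounds at 3,000, 1,000, 500, 100 and 10 mcg/ml (solvent <10%) were applied on 12.7 mm paper discs. After at least 20-24 h incubation, inhibition zone diameter was measured in mm.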

[2] = tested on: Bacillus subtilis; experiment: agar plate paper-disc inhibition zone screening; type: cell-based; details: read-out: Inhibition Zone Diameter mm (Dose mg/ml) B. Subtilis; for zone of inhibition at 1000 µg/mL: Dose 1.0 mg/ml; for zone of inhibition at 100 µg/mL: Dose 0.1 mg/ml; for zone of inhibition at 500 µg/mL: Dose 0.5 mg/ml
Method in brief: (§1)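 Read-out: diameter (mm) of the inhibition zone around 12.7 mm paper discs after overnight (18-20 h) incubation at 37°C. Discs carried compound at 3,000-10 mcg/ml in alcohol, DMSO or DMF, final solvent <10%. Seeded agar trays used saline-suspended cells adjusted to 20-35% transmittancy.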

[3] = tested on: Escherichia coli; experiment: agar plate paper-disc inhibition zone screening; type: cell-based; details: read-out: Inhibition Zone Diameter mm (Dose mg/ml) E. Coli; for zone of inhibition at 1000 µg/mL: Dose 1.0 mg/ml; for zone of inhibition at 100 µg/mL: Dose 0.1 mg/ml; for zone of inhibition at 3000 µg/mL: Dose 3.0 mg/ml
Method in brief: as §1

[4] = tested on: Streptococcus faecalis; experiment: agar plate paper-disc inhibition zone screening; type: cell-based; details: Enterococcus faecalis, read-out: Inhibition Zone Diameter mm (Dose mg/ml) S. Faecalis; for zone of inhibition at 3000 µg/mL: Dose 3.0 mg/ml; for zone of inhibition at 500 µg/mL: Dose 0.5 mg/ml; for zone of inhibition at 1000 µg/mL: Dose 1.0 mg/ml
Method in brief: as §1

[5] = tested on: Aerobacter aerogenes; experiment: agar plate paper-disc inhibition zone screening; type: cell-based; details: Klebsiella aerogenes, read-out: Inhibition Zone Diameter mm (Dose mg/ml) A. Aerogenes; for zone of inhibition at 500 µg/mL: Dose 0.5 mg/ml; for zone of inhibition at 1000 µg/mL: Dose 1.0 mg/ml; for zone of inhibition at 100 µg/mL: Dose 0.1 mg/ml
Method in brief: as §1

[6] = tested on: HCT-8 (human colon adenocarcinoma) cells; experiment: in vitro activity against human colon adenocarcinoma (HCT-8), cell count; type: cell-based; details: Homo sapiens; HCT-8 cells, 60-65 hrs with compound; molar quantity of drug required to kill 50% of the tumor cells; read-out: ID50 Molar
Description: HCT-8 (human colon adenocarcinoma) cells are trypsinized using Trypsin-EDTA. A single cell suspension is achieved by passing the cells through a 26 gauge needle with a 20 cc syringe. A cell suspension is prepared using RPMI 1640 growth medium (available from Gibco Laboratories) +10% fetal calf serum +50 µg/ml garamycin with a cell concentration of approximately 30,000 cells/ml. The cell suspension is dispensed in Linbro 24-well plates; 1 ml/well. The plates are incubated for approximately 48 hrs at 37°C in a 5% C02 atmosphere. At this time test compounds are added in the appropriate concentration. Five µl of the 200 µg/ml stock solution is added to each well in a primary test. Ten pl of the appropriate dilution is added to each well for a titration test. The plates are reincubated an additional 60-65 hrs at 37°C in a 5% C02 atmosphere. The test is read by lysing the cells using a mix of cationic surfactant, glacial acetic acid and sodium chloride. […] of the lysed cell suspension from each well is added to 8 ml of diluent. Each sample is read with a Coulter counter (ZBI model). The activity of each sample is measured as a percentage of the controls and the data is reported as ID50, that is the molar quantity of drug required to kill 50% of the tumor cells.

[7] = tested on: lymphocytic leukemia P388; experiment: in vivo lymphocytic leukemia P388 test; design: species or system mice; details: Mus musculus, P388, ip, 720 h, two single doses four days apart, read-out: T/C × 100 (Percent); for response vs control in vivo at 1.56 mg/kg: P388, Dose 1.56 mg/kg intraperitoneally; for response vs control in vivo at 3.12 mg/kg: P388, Dose 3.12 mg/kg intraperitoneally; for response vs control in vivo at 6.25 mg/kg: P388, Dose 6.25 mg/kg intraperitoneally; for response vs control in vivo at 25 mg/kg: P388, Dose 25 mg/kg intraperitoneally; for response vs control in vivo at 12.5 mg/kg: P388, Dose 12.5 mg/kg intraperitoneally
Method in brief: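 Efficacy was judged from the treated/control survival-time ratio over 30 days (T/C×100 >125% as criterion). Mice (CD2F, 6–7/group) received i.p. P388 ascites cells, then compound i.p. at varied doses twice, four days apart.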

CCN(CC)CCn1nc2c3c(c(NCCN)ccc31)C(=O)c1c(O)ccc(O)c1-2 [Example 30, 5-[(2-Aminoethyl)amino]-2-(2-(diethylamino)ethyl]-7,10-dihydroxyanthra[1,9-cd]pyrazol-6(2H)-one]
zone of inhibition at 3000 µg/mL [1]: 14 mm
zone of inhibition at 1000 µg/mL [2]: 16 mm
zone of inhibition at 1000 µg/mL [3]: 15 mm
zone of inhibition at 3000 µg/mL [4]: 0 mm
zone of inhibition at 500 µg/mL [5]: 16 mm
IC50 [6]: 380 nM
response vs control in vivo at 1.56 mg/kg [7]: 172%
response vs control in vivo at 3.12 mg/kg [7]: 154%
response vs control in vivo at 6.25 mg/kg [7]: 189%
response vs control in vivo at 25 mg/kg [7]: 179%

CCN(CC)CCn1nc2c3c(c(NCCN4CCOCC4)ccc31)C(=O)c1ccccc1-2 [Example 4]
zone of inhibition at 1000 µg/mL ([1]; Dose 1.0 mg/ml): 14 mm
zone of inhibition at 1000 µg/mL [2]: 25 mm
zone of inhibition at 1000 µg/mL [3]: 14 mm
zone of inhibition at 500 µg/mL [4]: 14 mm
zone of inhibition at 1000 µg/mL [5]: 15 mm
IC50 [6]: 120 nM
response vs control in vivo at 100 mg/kg ([7]; P388, Dose 100 mg/kg intraperitoneally): 145%
response vs control in vivo at 400 mg/kg ([7]; P388, Dose 400 mg/kg intraperitoneally): 211%

NCCNc1ccc2c3c(nn2CCNCCO)-c2ccccc2C(=O)c13 [Example 22, 5-[(2-Aminoethyl)amino]-2-[2-[(2-hydroxyethyl)amino]ethyl]anthra[1,9-cd]pyrazol-6(2H)-one]
zone of inhibition at 3000 µg/mL [1]: 0 mm
zone of inhibition at 100 µg/mL [2]: 15 mm
zone of inhibition at 100 µg/mL [3]: 14 mm
zone of inhibition at 3000 µg/mL [4]: 0 mm
zone of inhibition at 500 µg/mL [5]: 16 mm
IC50 [6]: 42 nM
response vs control in vivo at 1.56 mg/kg [7]: 150%
response vs control in vivo at 3.12 mg/kg [7]: 162%
response vs control in vivo at 12.5 mg/kg [7]: 175%
response vs control in vivo at 25 mg/kg [7]: 189%

CCN(CC)CCNc1ccc2c3c(nn2CCNCCO)-c2ccccc2C(=O)c13 [Example 23, 5-[[2-(Diethylamino)ethyl]amino]-2-[2-[(2-hydroxyethyl)amino]ethyl]anthra[1,9-cd]pyrazol-6(2H)-one]
zone of inhibition at 3000 µg/mL [1]: 16 mm
zone of inhibition at 100 µg/mL [2]: 14 mm
zone of inhibition at 100 µg/mL [3]: 14 mm
zone of inhibition at 500 µg/mL [4]: 15 mm
zone of inhibition at 500 µg/mL [5]: 18 mm
IC50 [6]: 120 nM
response vs control in vivo at 1.56 mg/kg [7]: 138%
response vs control in vivo at 3.12 mg/kg [7]: 143%
response vs control in vivo at 6.25 mg/kg [7]: 138%
response vs control in vivo at 12.5 mg/kg [7]: 150%
response vs control in vivo at 25 mg/kg [7]: 149%

NCCn1nc2c3c(c(NCCNCCO)ccc31)C(=O)c1ccccc1-2 [Example 27, 2-(2-Aminoethyl)-5-[[2-[(2-hydroxyethyl)amino]ethyl]amino]anthra[1,9-cd]pyrazol-6(2H)-one]
zone of inhibition at 3000 µg/mL [1]: 0 mm
zone of inhibition at 3000 µg/mL ([2]; Dose 3.0 mg/ml): 14 mm
zone of inhibition at 500 µg/mL ([3]; Dose 0.5 mg/ml): 14 mm
zone of inhibition at 3000 µg/mL [4]: 0 mm
zone of inhibition at 100 µg/mL [5]: 17 mm
IC50 [6]: 68 nM
response vs control in vivo at 1.56 mg/kg [7]: 139%
response vs control in vivo at 3.12 mg/kg [7]: 149%
response vs control in vivo at 6.25 mg/kg [7]: 158%
response vs control in vivo at 12.5 mg/kg [7]: 173%
response vs control in vivo at 25 mg/kg [7]: 187%

O=C1c2ccccc2-c2nn(CCNCCO)c3ccc(NCCNCCO)c1c23 [Example 21, 2-[2-[(2-Hydroxyethyl)amino]ethyl]-5-[[2-[(2-hydroxyethyl)amino]ethyl]amino]anthra[1,9-cd]pyrazol-6(2H)-one]
zone of inhibition at 3000 µg/mL [1]: 0 mm
zone of inhibition at 500 µg/mL [2]: 18 mm
zone of inhibition at 3000 µg/mL [3]: 16 mm
zone of inhibition at 3000 µg/mL [4]: 0 mm
zone of inhibition at 1000 µg/mL [5]: 14 mm
IC50 [6]: 960 nM
response vs control in vivo at 1.56 mg/kg [7]: 132%
response vs control in vivo at 6.25 mg/kg [7]: 147%
response vs control in vivo at 25 mg/kg [7]: 171%
response vs control in vivo at 50 mg/kg ([7]; P388, Dose 50 mg/kg intraperitoneally): 199%

CN(C)CCNc1ccc2c3c(nn2CCNCCO)-c2ccccc2C(=O)c13 [Example 25, 2-[2-[(2-Hydroxyethyl)amino]ethyl]-5-[[2-(dimethylamino)ethyl]amino]anthra[1,9-cd]pyrazol-6(2H)-one]
zone of inhibition at 3000 µg/mL [1]: 0 mm
zone of inhibition at 500 µg/mL [2]: 20 mm
zone of inhibition at 1000 µg/mL [3]: 15 mm
zone of inhibition at 500 µg/mL [4]: 15 mm
zone of inhibition at 500 µg/mL [5]: 16 mm
IC50 [6]: 230 nM
response vs control in vivo at 3.12 mg/kg [7]: 158%
response vs control in vivo at 6.25 mg/kg [7]: 163%
response vs control in vivo at 12.5 mg/kg [7]: 166%
response vs control in vivo at 25 mg/kg [7]: 162%

O=C1c2ccccc2-c2n[nH]c3ccc(NCCNCCO)c1c23 [Example 19, 5-[[2-[(2-Hydroxyethyl)amino]ethyl]amino]anthra[1,9-cd]pyrazol-6-(2H)-one]
zone of inhibition at 3000 µg/mL [1]: 0 mm
zone of inhibition at 500 µg/mL [2]: 19 mm
zone of inhibition at 3000 µg/mL [3]: 0 mm
zone of inhibition at 3000 µg/mL [4]: 17 mm
zone of inhibition at 500 µg/mL [5]: 18 mm
IC50 [6]: 1500 nM

CCN(CC)CCNc1ccc2c3c(nn2CCO)-c2ccccc2C(=O)c13 [Example 13, 5-[[2-(Diethylamino]ethyl]amino]-2-(2-hydroxyethyl)anthra[1,9-cd]pyrazol-6(2H)-one]
zone of inhibition at 3000 µg/mL [1]: 16 mm
zone of inhibition at 100 µg/mL [2]: 15 mm
zone of inhibition at 1000 µg/mL [3]: 15 mm
zone of inhibition at 1000 µg/mL [4]: 14 mm
zone of inhibition at 500 µg/mL [5]: 20 mm
IC50 [6]: 1800 nM

CCN(CC)CCCNc1ccc2c3c(nn2CCO)-c2ccccc2C(=O)c13 [Example 15, 5-[[3-(Diethylamino)propyl]amino]-2-(2-hydroxyethyl)anthra[1,9-cd]pyrazol-6(2H)-one]
zone of inhibition at 3000 µg/mL [1]: 0 mm
zone of inhibition at 1000 µg/mL [2]: 22 mm
zone of inhibition at 3000 µg/mL [3]: 0 mm
zone of inhibition at 3000 µg/mL [4]: 14 mm
zone of inhibition at 1000 µg/mL [5]: 15 mm
IC50 [6]: 480 nM

Cn1nc2c3c(c(NCCNCCO)ccc31)C(=O)c1ccccc1-2 [Example 11, 5-[[2-[(2-Hydroxyethyl)amino]ethyl]amino]-2-methylanthra[1,9-cd]pyrazol-6(2H)-one]
zone of inhibition at 3000 µg/mL [1]: 0 mm
zone of inhibition at 100 µg/mL [2]: 14 mm
zone of inhibition at 1000 µg/mL [3]: 14 mm
zone of inhibition at 1000 µg/mL [4]: 14 mm
zone of inhibition at 500 µg/mL [5]: 17 mm
IC50 [6]: 400 nM

CCN(CC)CCCCNc1ccc2c3c(nn2CCN(CC)CC)-c2ccccc2C(=O)c13 [Example 7]
zone of inhibition at 3000 µg/mL [1]: 14 mm
zone of inhibition at 1000 µg/mL [2]: 17 mm
zone of inhibition at 3000 µg/mL [3]: 15 mm
zone of inhibition at 1000 µg/mL [4]: 14 mm
zone of inhibition at 100 µg/mL [5]: 16 mm
IC50 [6]: 220 nM
